# In paper PMC6372683, “Mechanism of the natural product moracin-O derived MO-460 and its targeting protein hnRNPA2B1 on HIF-1α inhibition” (Experimental & Molecular Medicine, 2019):
# Entries after “also recorded” stand apart in the source; their conditions may differ.
# Key:
# [1] = test system: HIF-1α in Hep3B cells; assay: HIF-1α protein accumulation under CoCl2 mimetic hypoxia (immunostaining and western blotting); assay type: cell-based, human
# [2] = biological target: T1, hnRNPA2B1 (Homo sapiens, UniProt P22626); assay: In vitro pull-down assay of purified recombinant hnRNPA2B1; assay type: binding; settings: excess amount of MO-460 added
# T1 construct: made in house; host or cells: HEK293T
# Protocol: HEK293T cells were cultured in DMEM medium supplemented with 10% fetal bovine serum in a humidified atmosphere containing 5% CO2. The cells were transfected with C-terminal Myc/DDK-tagged hnRNPA2B1 constructs. Recombinant protein was captured with an anti-DDK affinity column followed by conventional chromatography. A streptavidin-conjugated biotin linker was used as a control or streptavidin-conjugated biotinylated MO-460 were treated with 5% bovine serum albumin in PBS for 1 h at room temperature. Myc/DDK-tagged hnRNPA2B1 protein (1 ug) was incubated with streptavidin-conjugated biotin linker (1,200 μM) or streptavidin-conjugated biotinylated MO-460 (400 μM) in the presence or absence of MO-460 (400 μg) in binding buffer for 6 h at 4 °C. The reacted beads were washed with binding buffer [10 mM HEPES pH 7.9, 10 mM KCl, 0.1 mM EGTA, 0.1 mM EDTA, 0.5 mM PMSF, 0.025% 2-mercaptoethanol, and protease inhibitor cocktail] and the bound proteins eluted with SDS/PAGE sample buffer. Proteins were resolved by SDS/PAGE and detected by silver staining.
# [3] = biological target: T2, HIF-1α protein (Homo sapiens, UniProt Q16665); assay: Affinity capture with Biotin-MO-460 followed by LC/MS; assay type: binding; settings: two rounds of the affinity capture experiment
# T2 construct: endogenous in cells; host or cells: Hep3B (cytosolic and nuclear lysates, CoCl2-treated)
# Protocol: We synthesized biotinylated MO-460 using a recently reported method. Fractionation and enrichment of cytosol and nuclei were performed as described previously. Briefly, Hep3B (Human hepatocyte cancer cell line) was harvested and washed twice with PBS after treatment with 200 μM of CoCl2 for 24 h, and then resuspended in lysis buffer [10 mM HEPES pH 7.9, 10 mM KCl, 0.1 mM EGTA, 0.1 mM EDTA, 0.5 mM PMSF, 0.025% 2-Mercaptoethanol, 1.6% NP-40, and protease inhibitor cocktail]. After cell lysis and homogenization by vortexing for 10 s, the insoluble material was removed by centrifugation. The supernatant was collected as a cytosol-enriched lysate. The pellet was resuspended in nuclear extract buffer [20 mM HEPES pH 7.9, 400 mM NaCl, 1 mM EGTA, 1 mM EDTA, 1 mM DTT, 1 mM PMSF, protease inhibitor cocktail]. The pellet was then vortexed vigorously at 4 °C to separate the insoluble material. After the cytosol-enriched lysate (97.9 μg of protein) and the nuclei-enriched lysate (67.5 μg of protein) were precleared by incubation with NeutrAvidine^TM agarose-resins (Thermo Scientific) that were conjugated with biotin-linker (cytosol fraction: 600 μM, nuclear fraction: 1200 μM) for 12 h at 4 °C, the cleared cell lysate was incubated with NeutrAvidine^TM agarose-resins bound -Biotin-MO-460 (cytosol fraction: 200 μM, nuclear fraction: 400 μM) for 16 h at 4 °C, respectively. […]
# T1 sequence (P22626 whole entry): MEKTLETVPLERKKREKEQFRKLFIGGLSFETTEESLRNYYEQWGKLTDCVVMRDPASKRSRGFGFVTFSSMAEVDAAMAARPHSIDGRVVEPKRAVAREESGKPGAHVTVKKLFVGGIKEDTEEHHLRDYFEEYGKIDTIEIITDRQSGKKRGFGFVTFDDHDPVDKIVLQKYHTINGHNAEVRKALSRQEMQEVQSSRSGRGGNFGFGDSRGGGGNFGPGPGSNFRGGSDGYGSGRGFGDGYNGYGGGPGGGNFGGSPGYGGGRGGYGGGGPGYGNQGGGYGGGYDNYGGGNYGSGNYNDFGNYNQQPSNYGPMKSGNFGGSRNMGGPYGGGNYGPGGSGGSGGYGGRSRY
# T2 sequence (Q16665 whole entry): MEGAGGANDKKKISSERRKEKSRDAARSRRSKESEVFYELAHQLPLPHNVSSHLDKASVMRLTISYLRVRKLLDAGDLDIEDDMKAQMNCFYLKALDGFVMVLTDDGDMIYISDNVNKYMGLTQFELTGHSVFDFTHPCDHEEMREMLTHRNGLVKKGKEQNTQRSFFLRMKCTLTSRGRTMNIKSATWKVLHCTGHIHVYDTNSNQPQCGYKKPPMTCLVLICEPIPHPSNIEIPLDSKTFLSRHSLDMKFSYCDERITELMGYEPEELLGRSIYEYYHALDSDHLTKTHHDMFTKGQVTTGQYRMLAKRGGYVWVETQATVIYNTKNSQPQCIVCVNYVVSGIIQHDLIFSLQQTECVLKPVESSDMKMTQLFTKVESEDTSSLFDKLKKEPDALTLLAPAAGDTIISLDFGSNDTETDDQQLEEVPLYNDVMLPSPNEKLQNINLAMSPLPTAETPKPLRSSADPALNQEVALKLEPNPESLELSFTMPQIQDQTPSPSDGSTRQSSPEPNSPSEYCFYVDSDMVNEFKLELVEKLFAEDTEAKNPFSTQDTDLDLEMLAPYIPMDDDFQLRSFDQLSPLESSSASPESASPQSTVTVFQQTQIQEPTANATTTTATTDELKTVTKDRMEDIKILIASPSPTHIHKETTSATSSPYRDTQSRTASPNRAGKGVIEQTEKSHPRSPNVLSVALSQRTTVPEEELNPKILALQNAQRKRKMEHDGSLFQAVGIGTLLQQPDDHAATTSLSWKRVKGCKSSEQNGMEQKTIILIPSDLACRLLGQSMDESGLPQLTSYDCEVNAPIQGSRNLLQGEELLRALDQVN
compound,measurement,setting,value
"CC(C)(O)[C@H]1Cc2cc3cc(-c4ccc(O)cc4)oc3cc2O1 [MO-460, (R)-4-[6-(1-Hydroxy-1-methylethyl)-5,6-dihydro-benzo[1,2-b;5,4-b’]difuran-2-yl]-phenol]",accumulation of HIF-1α protein,"[1]; CoCl2 mimetic hypoxia, 24 h",inhibits the accumulation of HIF-1α protein; also recorded: reduced the level of HIF-1α protein in a concentration-dependent manner; also recorded: completely eliminated the accumulation of HIF-1α
same,amount of hnRNPA2B1,[1]; western blot,no effect
same,interaction between hnRNPA2B1 and biotin-MO-460 on competition,[2],eliminated
same,binding to HIF-1α protein,[3],did not bind to HIF-1α protein
